Assay results from article PMC6037691, “Selenazolyl-hydrazones as Novel Selective MAO Inhibitors With Antiproliferative and Antioxidant Activities: Experimental and In-silico Studies” (Frontiers in Chemistry, 2018).

How the values were obtained:
[1] = test system: A549 (non-small cell lung); experiment: Antiproliferative activity, A549; type: cell-based, human; conditions: for GI50: Homo sapiens
Experimental: (§1) The in vitro antiproliferative activity of investigated compounds was evaluated against six human solid tumor cell lines: A549 (non-small cell lung), HBL-100, (breast), HeLa (cervix), SW1573 (non-small cell lung), as drug sensitive lines, T-47D (breast) and WiDr (colon) as drug resistant lines. These cell lines were a kind gift from Prof. G. J. Peters (VU Medical Center, Amsterdam, The Netherlands). For selectivity studies, the human fibroblasts BJ-hTert cell line was used, which was obtained from Dr. R. Freire (HUC, Tenerife, Canary Islands). Cells were kept in culture medium under standard conditions: RPMI 1640 medium, fetal bovine serum (5%), glutamine (2 mM), penicillin G (100 units/mL) and streptomycin (0.1 mg/mL). Antiproliferative tests were conducted as described earlier (Skehan et al., [1990]; Miranda et al., [2006]). Tested compounds were dissolved in DMSO at an initial concentration of 40 mM. DMSO was used as negative control (0.25% v/v). Antiproliferative activity of the compounds was expressed as GI50, which is the concentration of the compound that inhibits 50% of the culture growth.

[2] = test system: T-47D (breast); experiment: Antiproliferative activity, T-47D; type: cell-based, human
Experimental: as §1

[3] = test system: HeLa (cervix); experiment: Antiproliferative activity, HeLa; type: cell-based, human; conditions: for GI50: Homo sapiens
Experimental: as §1

[4] = test system: human fibroblasts BJ-hTert cell line; experiment: Selectivity, non-transformed fibroblasts BJ-hTert; type: cell-based; conditions: Fibroblast; BJ-hTert normal human cell line; concentrations up to 100 μM
Experimental: as §1

[5] = Total reducing power (TRP), modified potassium ferricyanide reduction method; conditions: concentration providing 0.500 of absorbance at 700 nm; mean ± SD, n = 3
Experimental: The mixture containing 0.5 mL of phosphate buffer (0.2 M, pH = 6.6), 0.5 mL of K3[Fe(CN)6] (1%; w/v) and 0.5 mL of the samples (100–1,500 μM) was incubated at 50°C for 20 min. A volume of 0.5 mL of trichloroacetic acid (TCA, 10%; w/v), 0.5 mL of Milli-Q water and 0.5 mL of FeCl3 (0.1%; w/v) was added, followed by intensive vortexing. The absorbance of the resulting mixture was measured after 60 min at 700 nm using phosphate buffer as blank (Oyaizu, [1986]).
(§2) Volume of 0.4 mL of sample solution (50–1,000 μM) was mixed with 1.6 mL of reagent solution [0.6 M H2SO4, 28 mM Na3PO4, and 4 mM (NH4)2MoO4] and resulting mixtures were incubated at 95°C for 90 min. The cooled reaction mixtures were then centrifuged for 10 min (3,000 rpm). The absorbance of the supernatant solution was measured, 1 h after centrifugation, at 695 nm against reagent solution as blank. An increased absorbance in reading in both assays indicated increased antioxidant power, expressed as EC50 values (the sample concentration giving absorbance of 0.500 from the graph of absorbance at 700 nm or 695 nm against compound concentration) (Prieto et al., [1999]).

[6] = Total antioxidant capacity (TAOC), modified phosphomolybdenum method; conditions: concentration providing 0.500 of absorbance at 695 nm; mean ± SD, n = 3
Experimental: as §2

[7] = target: T1, MAO B (Homo sapiens, UniProt P27338); experiment: MAO B inhibition, discontinuous fluorimetric kynuramine assay; type: biochemical; conditions: for inhibition at 1 µM: 1 μM inhibitor, mean ± SD, n = 2, normalized to control
T1 construct: purchased Sigma-Aldrich
T1 sequence (P27338 1-520): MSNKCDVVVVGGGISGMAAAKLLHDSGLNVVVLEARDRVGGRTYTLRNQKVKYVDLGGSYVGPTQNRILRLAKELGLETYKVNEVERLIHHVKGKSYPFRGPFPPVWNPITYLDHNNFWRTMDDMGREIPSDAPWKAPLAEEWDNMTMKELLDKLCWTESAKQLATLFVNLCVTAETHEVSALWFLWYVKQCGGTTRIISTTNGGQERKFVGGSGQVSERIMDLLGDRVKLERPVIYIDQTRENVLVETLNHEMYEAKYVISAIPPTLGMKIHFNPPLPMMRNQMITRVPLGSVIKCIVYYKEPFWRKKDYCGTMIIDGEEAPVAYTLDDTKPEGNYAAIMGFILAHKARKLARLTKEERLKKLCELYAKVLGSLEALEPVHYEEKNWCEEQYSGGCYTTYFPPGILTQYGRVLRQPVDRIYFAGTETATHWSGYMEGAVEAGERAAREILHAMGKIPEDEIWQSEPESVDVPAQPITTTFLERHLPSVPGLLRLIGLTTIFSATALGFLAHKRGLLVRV
Experimental: MAO A and B inhibition capacities were investigated using a discontinuous fluorimetric assay (Meiring et al., [2013]) as described previously by using human recombinant membrane-bound MAO purchased from Sigma-Aldrich (Affini et al., [2018]). Briefly, remained enzyme activity with inhibitor, either 1 μM (one-point) or concentrations ranging from 0.0001 to 10 μM, was assessed in the presence of kynuramine [2 × KM, KM = 20 μM (MAO A), KM = 30 μM (MAO B)] in potassium phosphate buffer (pH 7.4). Reactions were started by addition of enzyme and stopped by manual addition of sodium hydroxide (2 N) after 20 min. Enzyme activity was determined by detection of 4-hydroxyquinoline (λEx = 320 nm, λEm = 405 nm). Data were analyzed using GraphPad PRISM 6. For one-point measurements data were calculated as percentage of control and expressed as mean ± standard deviation (%). […] Data were obtained from two (one-point measurements) or at least three (IC50 values) independent experiments, each performed in duplicates.

[8] = test system: HBL-100 (breast); experiment: Antiproliferative activity, HBL-100; type: cell-based, human; conditions: for GI50: Homo sapiens
Experimental: as §1

[9] = test system: SW1573 (non-small cell lung); experiment: Antiproliferative activity, SW1573; type: cell-based, human; conditions: for GI50: Homo sapiens
Experimental: as §1

[10] = test system: WiDr (colon); experiment: Antiproliferative activity, WiDr; type: cell-based, human; conditions: for GI50: Homo sapiens
Experimental: as §1

[11] = Oxygen radical absorbance capacity (ORAC) assay; conditions: Trolox equivalents; mean ± SD, n = 3
Experimental: A modification of original protocol was used (Ou et al., [2001]). Stock solutions of fluorescein substrate (5 μM) and free radical generator AAPH (0.5 M) were prepared in 75 mM potassium phosphate buffer (pH = 7.4). Volume of 100 μL of sample solutions or Trolox in DMSO (20 μM) were mixed with 1,485 μL of buffer and 15 μL of fluorescein solution. The 30 min reaction at 37°C was initiated by adding 250 μL of AAPH solution. Fluorescence conditions were as follows: excitation and emission wavelengths 485 and 511 nm, respectively, slits 2 nm. The relative sample ORAC value was expressed as Trolox equivalents (TE).

| Compound | antiproliferative activity class A549 [1] | GI50 [1] [µM] | antiproliferative activity class HeLa [3] | GI50 [3] [µM] | GI50 [4] [µM] | EC50 [5] [µM] | EC50 [6] [µM] | inhibition at 1 µM [7] [%] | GI50 [8] [µM] | melting point [°C] | antiproliferative activity class SW1573 [9] | GI50 [9] [µM] | antiproliferative activity class WiDr [10] | GI50 [10] [µM] | ORAC [11] [TE] | GI50 ([2]; Homo sapiens, T47D, T-47D) [µM] | GI50 ([2]; T-47D) [µM] | also measured |
| --- | --- | --- | --- | --- | --- | --- | --- | --- | --- | --- | --- | --- | --- | --- | --- | --- | --- | --- |
| C(=NNc1nc(-c2ccccc2)c[se]1)c1ccccc1 [Compound 1, 2-(2-benzylidenehydrazinyl)-4-phenyl-1,3-selenazole] | moderate activity (moderate activity (GI50 = 10–100 μM)) | 28 ± 7.1 | moderate activity (moderate activity (GI50 = 10–100 μM)) | 41 ± 9.5 | > 100 | 990 ± 92 | 648 ± 55 | 89.4 ± 1.5 | 91 ± 12 | 178 to 180 | moderate activity (moderate activity (GI50 = 10–100 μM)) | 24 ± 8 | good activity (good activity (GI50 = 1–10 μM)) | 4.8 ± 0.8 | 0.75 ± 0.05 | – | – | GI50 ([2]; Homo sapiens, T47D): 6.4 ± 0.9 µM; antiproliferative activity class T-47D ([2]; T-47D): good activity (good activity (GI50 = 1–10 μM)); IC50 ([7]; mean, 95% CI, at least three experiments): 0.252 µM; antiproliferative activity class HBL-100 [8]: moderate activity (moderate activity (GI50 = 10–100 μM)) |
| COc1ccc(-c2c[se]c(NN=Cc3ccccc3)n2)cc1 [Compound 1-OMe, 2-(2-benzylidenehydrazinyl)-4-(4-methoxyphenyl)-1,3-selenazole] | – | > 100 | – | > 100 | > 100 | 806 ± 85 | 548 ± 53 | 33 ± 11.6 | > 100 | 180 to 182 | – | 42 ± 7.7 | – | > 100 | 0.74 ± 0.06 | > 100 | – | – |
| O=[N+]([O-])c1ccccc1C=NNc1nc(-c2ccccc2)c[se]1 [Compound 2, 2-(2-(2-nitrobenzylidene)hydrazinyl)-4-phenyl-1,3-selenazole] | good activity (good activity (GI50 = 1–10 μM)) | 4.9 ± 1.5 | good activity (good activity (GI50 = 1–10 μM)) | 6 ± 0.7 | > 100 | 390 ± 48 | 357 ± 41 | 64.8 ± 6.1 | 21 ± 8.6 | 183 to 184 | good activity (good activity (GI50 = 1–10 μM)) | 5.3 ± 0.6 | good activity (good activity (GI50 = 1–10 μM)) | 5 ± 0.9 | 0.82 ± 0.07 | ~10 | 12 ± 1.5 | – |
| Cc1ccc(-c2c[se]c(NN=Cc3ccccc3[N+](=O)[O-])n2)cc1 [Compound 2-Me, 2-(2-(2-nitrobenzylidene)hydrazinyl)-4-(p-tolyl)-1,3-selenazole] | good activity (good activity (GI50 = 1–10 μM)) | 8.8 ± 2.2 | good activity (good activity (GI50 = 1–10 μM)) | 7.4 ± 1.4 | > 100 | 470 ± 41 | 416 ± 45 | 22.1 ± 8.7 | 95 ± 8.1 | 170 to 171 | good activity (good activity (GI50 = 1–10 μM)) | 4.6 ± 1.2 | good activity (good activity (GI50 = 1–10 μM)) | 8.2 ± 1 | 0.77 ± 0.05 | ~10 | 13 ± 1.3 | – |
| COc1ccc(-c2c[se]c(NN=Cc3ccccc3[N+](=O)[O-])n2)cc1 [Compound 2-OMe, 4-(4-methoxyphenyl)-2-(2-(2-nitrobenzylidene)hydrazinyl)-1,3-selenazole] | – | 22 ± 5.6 | – | 49 ± 12 | > 100 | 560 ± 53 | 433 ± 39 | 35.9 ± 11.2 | > 100 | 165 to 166 | – | 46 ± 10 | – | 22 ± 2.3 | 0.82 ± 0.07 | 36 ± 8.6 | – | – |
| O=[N+]([O-])c1cccc(C=NNc2nc(-c3ccccc3)c[se]2)c1 [Compound 3, 2-(2-(3-nitrobenzylidene)hydrazinyl)-4-phenyl-1,3-selenazole] | good activity (good activity (GI50 = 1–10 μM)) | 6.1 ± 0.8 | – | 24 ± 7.1 | > 100 | 420 ± 45 | 325 ± 38 | 57.5 ± 11.4 | 28 ± 0.8 | 216 to 218 | – | 16 ± 4.8 | – | 40 ± 0.6 | 0.90 ± 0.06 | 52 ± 13 | – | – |
